Experimental data taken from patent publication US8957022B2, “Multimeric tie 2 agonists and uses thereof in stimulating angiogenesis” (Sunnybrook Health Sciences Centre, priority 2006, dated 2015).
Where no end group is shown, it is not given here. Side-chain parts run from the residue outwards. The star is where a group is joined. Biotin = O=C1N[C@H]2[C@H](CS[C@H]2CCCCC(=O)*)N1; PEO = not defined here

Assays:
[1] = tested on: B6.Cg-m(+/+)Lepr(db)/J (db/db) mice; test: Excisional wound healing in diabetic mice, topical application; assay type: in vivo, mouse; settings: bFGF 10 μg/ml
Experimental: Pathogen free, nine week old B6.Cg-m(+/+)Lepr(db)/J (db/db) mice were purchased from Jackson Laboratories. Circular, full excisional, 6 mm diameter wounds were made, according to animal committee approval guidelines, equal distant apart on the dorsal side of the mice. Various factors were suspended in sterile Intrasite Topical Gel (Smith and Nephew) at noted concentrations. Treatments were as follows: Vehicle n=8, bFGF (10 μg/ml) n=8, clustered Vasculotide (20 nM) n=4, clustered Vasculotide (5 nM) n=4. Preparations were applied at day 0 (time of wounding), day 2, 4 and 6. Standardized images were taken on days 0, 2, 4, 6 and 7 using a Canon EOS digital Rebel camera. Image J (NIH) was used to manually outline wound perimeter from which total pixel counts (wound area) were determined. Mice were sacrificed on day 7 and full wound beds including margin were excised and fixed in 4% PFA. Wounds were cut in half at the widest point and each half was prepared for either paraffin or frozen sections. Wax sections were processed according to standard protocols for H&E and Masson's Trichrome stain. Images were captured using a Leica DMLS compound light microscope and Pixel Link camera at 5× and 20×. Student's t test was used to test the statistical significance.
For histological scoring, sections were fixed in 4% paraformaldehyde, embedded in paraffin and sectioned and stained with H & E and Masson's trichrome. Sections were evaluated by a pathologist for re-epithelialization, granulation tissue formation, and inflammation, with criteria used for scoring skin as follows:
• 0—none • 1—minimal (0-20% regrowth from wound margins) • 2—mild (25% to 50% regrowth) • 3—moderate (>50% regrowth, up to 100% but not >2 cells thick along length) • 4—complete regrowth (epithelium>1 cell thick along length, keratinized) Granulation Tissue (GT) and Neovascularization: • 0—none • 1—minimal (1-3 small, isolated islands of GT at margins of defect) • 2—mild (multifocal, patchy islands of GT underlying tissue defect, <10 new blood vessels) • 3—moderate (locally extensive bands of GT underlying length of defect) • 4—marked (dense bands of GT at margins and underlying length of defect with collagen fibrils and numerous blood vessels) Inflammation (within Defect): • 0—none • 1—minimal (a few scattered neutrophils at margins of defect) • 2—mild (multifocal aggregates of up to 5 neutrophils underlying defect) • 3—moderate (multifocal aggregates of up to 10 neutrophils and occasional macrophages, minimal to mild edema) • 4—marked (locally extensive, dense neutrophilic infiltrates with lesser numbers of macrophages, mild-moderate edema)

[2] = biological target: Tie 2 (Homo sapiens, UniProt Q02763); test: Tie 2 activation (pY992 Tie 2 immunoblot) in HUVEC; assay type: cell-based; design: downstream signalling pathways in human umbilical vein endothelial cells (HUVEC) (Cambrex, N.J.); host or cells: HUVEC, passage 3-9; settings: avidin alone and unclustered Vasculotide
Experimental: Having established that Vasculotide was able to bind Tie 2 (see Example 2), the ability of Vasculotide, when clustered with avidin in a 4:1 ratio (Vasculotide:avidin), to activate the Tie 2 receptor was tested by examining several well established downstream signalling pathways in human umbilical vein endothelial cells (HUVEC) (Cambrex, N.J.). Such signalling pathways are described in, for example, Kim, I. et al. (2000) Circ. Res. 9:952-959; Fujikawa, K. et al. (1999) Exp. Cell. Res. 2:663-672; Babaei, S. et al. (2003) Am. J. Pathol. 6:1927-1936.
HUVEC were grown on 6-well or 10 cm plates (Nunc) coated with gelatin (Sigma). HUVEC were cultured in F12 growth medium containing 10% fetal bovine serum (FBS), 0.1 mg/ml heparin sulphate, 1× penicillin, 1× streptomycin, 1× glutamine, VEGF 10 ng/ml, EGF 10 ng/ml, bFGF 5 ng/ml. All HUVEC were used between passage 3-9.
(§1) HUVEC were stimulated with one of either Ang 1 (R&D Systems), Vasculotide, avidin or clustered Vasculotide (preclustered with a 4:1 molar ratio of peptide:avidin in PBS for 2 hours at 4° C.) at various doses. Stimulations with Vasculotide were performed in full serum containing growth media for 15 minutes unless otherwise indicated. Cell lysate preparations and immunoblot analysis were performed by standard methods. Antibodies used for immunoblotting (in this and/or subsequent Examples) were monoclonal anti Tie 2 (Pharminogen), polyclonal anti pY992 Tie 2, (Cell Signaling Technology), polyclonal anti MAPK (Cell Signaling Technology), monoclonal anti phospho MAPK (Cell Signaling Technology), polyclonal anti AKT (Cell Signaling Technology), polyclonal anti pS473 AKT (Cell Signaling Technology), monoclonal anti pS1177 eNOS (BD Biosciences), polyclonal anti pY397 FAK (Biosource), polyclonal anti FAK (Santa Cruz), polyclonal anti smooth muscle actin-Cy3 direct conjugate (Dako), polyclonal anti PECAM (Pharminogen) and polyclonal anti smooth muscle actin (Sigma).
To examine Tie 2 activation kinetics, HUVEC were stimulated with native Ang 1 or clustered Vasculotide for various times. Stimulation was performed in 10% FBS. […] Overall, activation of the receptor by either Ang 1 or clustered Vasculotide followed a very similar time course with phosphorylation returning to almost basal levels sometime after 2 hours.

[3] = tested on: HUVEC; test: Serum withdrawal-induced cell death, Cell Death ELISA; assay type: cell-based, human; settings: F12 plus 0.1% FBS, 16 hours; clustered Vasculotide at 500 pM (p=0.002) vs non-treated cells
Experimental: Based on the fact that clustered Vasculotide strongly activates the anti apoptotic protein AKT (see Example 3), the ability of Vasculotide to protect ECs from serum withdrawal-induced death was examined. To do so, HUVEC were maintained in F12 media plus 0.1% FBS for 16 hours in the presence of various concentrations of unclustered or clustered Vasculotide, followed by analysis of cell apoptosis via cell death ELISA. Analysis of apoptosis was performed using Cell Death ELISA Plus (Roche) according to manufacturers' specifications. The results are shown in FIG. 2A, in which values were normalized to basal levels of cell death for HUVECs maintained in full 10% FBS, growth factor supplemented F12 media. The results shown represent the mean of three replicates plus or minus 1 SD. Student's T-test was used for statistical analysis with P value indicated.

[4] = tested on: CD1 mice; test: Matrigel plug angiogenesis assay; assay type: in vivo, mouse
Experimental: To further examine the in vivo angiogenic potential of Vasculotide, a Matrigel assay was performed. More specifically, growth factor reduced Matrigel (BD Biosciences) was impregnated with either clustered Vasculotide or one of several different control factors. These Matrigel samples were injected subcutaneously into the flank region of 3 month old CD1 mice. 14 days post implantation and immediately prior to sacrifice, FITC lectin (100 μg) was injected IV and allowed to circulate for 10 minutes, to facilitate vessel identification and quantification. Plugs were surgically resected and fixed in 4% paraformaldehyde (PFA) for 16 h. Images of vascular topology were taken using a Zeiss dissecting microscope at 4× magnification. Upon fixing, all plugs were whole mount stained with anti-Sma1-Cy3. Plugs were analyzed on a Zeiss Axiovert 100 M confocal microscope (Carl Zeiss) for three dimensional image reconstruction and photos were processed using LSM Image Browser and Adobe Photoshop 7.0. Morphometric quantification of vessel characteristics was performed by skeletonizing confocal image projections with Image Processing Tool Kit 5.0 (IPTK 5.0). Student's t test was used to test the statistical significance with a 95% confidence interval. All experiments were performed with three replicates each, with at least 5 random image stacks.
To more fully address and assign quantitative vessel parameters to the different treatment groups, the plugs were fixed and interrogated with laser confocal microscopy analysis combined with post processing image analysis (Image Processing Tool Kit 5.0, Reindeer Graphics, N.C.). Vessel parameters, including length, number and branch points (nodes) were quantified on at least six representative fields. Statistical analysis was performed by way of unpaired Student's t test. Bar graphs of the number of vessels, vessel length and number of nodes, for each treatment group, are shown in FIGS. 3A, 3B and 3C, respectively. It is noted that poor perfusion of FITC-lecithin into mice harboring 20 nM clustered Vasculotide plus VEGF plugs prevented statistical analysis, therefore bars are the mean of two separate fields. All other bars shown represent mean+/−SD.
Ang 1 has been reported to potentiate the recruitment of myogenic support cells (Suri, C. et al. (1996) Cell 87:1171-1180) and inhibit VEGF induced vascular permeability through mechanisms that are not well understood (Thurston, G. et al. (2000) Nat. Med. 6:460-463). To determine if Vasculotide, like Ang 1, was capable of initiating pericyte recruitment, whole mount immunofluorescence was performed against smooth muscle actin 1 (Sma1). […] Sma 1 staining was tightly associated with the exterior of the vessels and was enriched on larger vessels.

[5] = tested on: HUVEC; test: Modified Boyden chamber migration assay; assay type: cell-based, human; settings: as in Example 4
Experimental: To test if Vasculotide, like Ang 1, was capable of promoting these processes, the effect of Vasculotide on EC migration was tested using a modified Boyden chamber assay. HUVEC were seeded at a density of 8.4×10^4 cells in 500 μl of F12 growth media plus 0.1% FBS in the upper chamber of an 8 μm pore size modified Boyden chamber (Falcon). 500 μl of F12 media plus 0.1% FBS plus various growth factors (Ang 1 (R& D Systems), unclustered or clustered Vasculotide, VEGF (R&D Systems) or clustered Vasculotide in combination with VEGF) or controls were placed in the bottom chamber. Cells were allowed to migrate for 4 hours in a 37° C., 5% CO2 incubator. Nonmigrating cells were scraped off, and filters were fixed in 100% methanol for 5 minutes, stained with Harris' Hematoxylin (BDH) for 10 minutes and washed twice with tap water for 3 minutes each. Filters were then mounted using Aquapolymount mounting medium. Cells that had migrated more than 50% of the way through the pore were scored as positive for migration.
Student's t test was used to test the statistical significance with a 95% confidence interval. Stimulations were performed in triplicate and migrating cells in 6 microscopic fields per replicate were counted.

[6] = tested on: MMP2; test: Gelatin zymography of HUVEC conditioned media; assay type: cell-based, human; settings: as in Example 4
Experimental: In vivo, ECs can not migrate until they secrete enzymes necessary to break down components of the extra cellular matrix. Gelatin zymography was employed to determine if clustered Vasculotide promoted secretion of MMP2. To perform the zymography, HUVEC were cultured in F12 media plus 0.1% FBS and stimulated for 16 h with VEGF, unclustered Vasculotide or clustered Vasculotide at various concentrations. Conditioned media was centrifuged to remove cellular debris and prepared for gel electrophoresis using non-reducing conditions. Gels were washed twice for 30 minutes in 2.5% Triton X-100 to remove sodium dodecyl sulfate and were then incubated in substrate buffer (50 mmol/L Tris-HCl, pH 8.8, 5 mmol/L CaCl2) for 16 hours at 37° C. Gels were then stained with 0.5% Coomassie blue in 30% methanol/10% acetic acid for 2 hours at room temperature and destained in 50% methanol/10% acetic acid. The presence of metalloproteinases was indicated by unstained proteolytic zones in the gel.

[7] = tested on: focal adhesion kinase (FAK); test: FAK activation in HUVEC (pY397 FAK immunoblot); assay type: cell-based, human; settings: time course
Experimental: as §1
To examine Tie 2 activation kinetics, HUVEC were stimulated with native Ang 1 or clustered Vasculotide for various times. Stimulation was performed in 10% FBS. […]

Sequence of Tie 2 (Q02763 23-1124): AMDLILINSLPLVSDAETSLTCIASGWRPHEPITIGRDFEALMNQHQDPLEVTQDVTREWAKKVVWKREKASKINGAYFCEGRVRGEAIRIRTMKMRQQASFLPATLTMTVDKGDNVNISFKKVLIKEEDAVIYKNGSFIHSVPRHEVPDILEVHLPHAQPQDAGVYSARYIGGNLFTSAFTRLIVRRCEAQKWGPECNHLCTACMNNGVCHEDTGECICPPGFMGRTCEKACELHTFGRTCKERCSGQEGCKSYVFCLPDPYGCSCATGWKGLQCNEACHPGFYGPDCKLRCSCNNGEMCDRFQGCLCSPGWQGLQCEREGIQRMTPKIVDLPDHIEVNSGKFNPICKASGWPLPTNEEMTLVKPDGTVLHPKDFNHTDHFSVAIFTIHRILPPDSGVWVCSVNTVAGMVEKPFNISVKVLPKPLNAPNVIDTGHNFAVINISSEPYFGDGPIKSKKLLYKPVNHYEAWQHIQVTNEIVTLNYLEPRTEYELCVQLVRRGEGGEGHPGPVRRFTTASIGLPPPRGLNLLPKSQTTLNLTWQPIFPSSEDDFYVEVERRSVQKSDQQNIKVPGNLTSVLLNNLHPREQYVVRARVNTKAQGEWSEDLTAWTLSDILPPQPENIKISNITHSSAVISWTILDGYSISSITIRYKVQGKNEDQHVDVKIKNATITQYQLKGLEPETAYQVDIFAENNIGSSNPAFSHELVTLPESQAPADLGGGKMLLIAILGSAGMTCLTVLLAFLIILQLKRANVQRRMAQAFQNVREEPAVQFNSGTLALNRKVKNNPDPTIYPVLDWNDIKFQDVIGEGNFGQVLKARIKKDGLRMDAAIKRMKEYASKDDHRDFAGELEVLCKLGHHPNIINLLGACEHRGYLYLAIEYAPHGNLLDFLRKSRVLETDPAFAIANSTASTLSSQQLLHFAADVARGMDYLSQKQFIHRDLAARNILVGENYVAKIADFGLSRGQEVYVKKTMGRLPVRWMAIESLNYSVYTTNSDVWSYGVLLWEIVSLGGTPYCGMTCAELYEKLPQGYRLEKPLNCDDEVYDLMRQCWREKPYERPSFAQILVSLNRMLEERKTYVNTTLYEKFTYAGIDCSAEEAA

bFGF: growth factor used as comparator at 10 μg/ml in the wound gel [reference compound]
Wound closure by day 7 [1]: statistically indistinguishable from clustered Vasculotide at 20 nM or 5 nM
Histological differences between vehicle and bFGF ([1]; p=0.0486): existed only at the level of inflammation

avidin: tetramer agent with four binding sites for biotin, tested alone as control [reference compound]
Tie 2 phosphorylation without preclustering [2]: only when preclustered with avidin was Vasculotide able to stimulate Tie 2 phosphorylation
Apoptosis / survival after serum withdrawal [3]: no effect on survival

VEGF [reference compound]
Nature of vessels (arborization, tortuosity) ([4]; 14 days post implantation): highly tortuous
Vessel growth in plugs (confocal analysis) ([4]; 14 days post implantation, FITC lectin): robust induction of angiogenesis
Angiogenic response in the membranous capsule surrounding the plugs ([4]; 14 days post implantation, subcutaneous): distinct and robust angiogenic response
Smooth muscle actin 1 (Sma1) staining, pericyte recruitment ([4]; whole mount immunofluorescence): relative absence of Sma1 positive staining cells

tetrameric GA3-containing compound: GA3 peptide (SEQ ID NO: 4) conjugated to PEO-maleimide-biotin, clustered with avidin in a 4:1 ratio (C([maleimide-PEO-Biotin])WTIIQRREDGSVDFQRTWKEYK; reading uncertain; also: avidin tetramer, 4 peptides per avidin, printed as Cys-Trp-Thr-Ile-Ile-Gln-Arg-Arg-Glu-Asp-Gly-Ser-Val-Asp-Phe-Gln-Arg-Thr-Trp-Lys-Glu-Tyr-Lys)
Endothelial cell migration (GA3 tetramer) [5]: effective in promoting endothelial cell migration
MMP2 release (GA3 tetramer) [6]: effective in promoting MMP2 release

B1: Ang 1: angiopoietin 1, protein growth factor ligand for Tie 2 (R&D Systems) (protein, UniProt Q15389 16-498, looked up)
Angiopoietin-1: HIGCSNQRRSPENSGRRYNRIQHGQCAYTFILPEHDGNCRESTTDQYNTNALQRDAPHVEPDFSSQKLQHLEHVMENYTQWLQKLENYIVENMKSEMAQIQQNAVQNHTATMLEIGTSLLSQTAEQTRKLTDVETQVLNQTSRLEIQLLENSLSTYKLEKQLLQQTNEILKIHEKNSLLEHKILEMEGKHKEELDTLKEEKENLQGLVTRQTYIIQELEKQLNRATTNNSVLQKQQLELMDTVHNLVNLCTKEGVLLKGGKREEEKPFRDCADVYQAGFNKSGIYTIYINNMPEPKKVFCNMDVNGGGWTVIQHREDGSLDFQRGWKEYKMGFGNPSGEYWLGNEFIFAITSQRQYMLRIELMDWEGNRAYSQYDRFHIGNEKQNYRLYLKGHTGTAGKQSSLILHGADFSTKDADNDNCMCKCALMLTGGWWFDACGPSNLNGMFYTAGQNHGKLNGIKWHYFKGPSYSLRSTTMMIRPLDF
Activation of FAK [7]: time dependently activated FAK
